Experimental data taken from US5252559A, “His-Gly-Gly peptide and derivatives thereof for hair growth” (The Procter & Gamble Company, priority 1991, dated 1993).
Peptide text beside a SMILES is read from it.

System: male C3H mice
Assay: C3H Mouse Model, topical study of hair growth
Format: in vivo
Description: The effect of the compounds of the present invention on hair growth is assessed using male C3H mice (Harlan Sprague Dawley, Inc., Indianapolis, Ind.) as an animal model. The mice are 52 days old at the time of first does. They are individually housed in "shoe box" cages (Scientific Products, Chicago, Ill.). Ten mice are used per test group.
Not more than four hours before treatment, the animals are anesthetized with an intraperitoneal mixture of acepromazine maleate (1.6 mg/kg), xylazine (4.8 mg/kg) and ketamine hydrochloride (64 mg/kg) dosed in a saline vehicle in a total volume of 0.2 ml per 25 g mouse. The entire back of the animal is clipped closely with a small animal clipper (Wahl model 8900, Wahl Clipper Corp., Sterling, Ill.). […]
On days of photography, the animals are photographed prior to dosing. […] Results are expressed as the percent of shaved area responding with anagen skin, and the percent of shaved area responding with hair growth.
A positive response, i.e., an increase of greater than 10% over control, indicates the potential of the test compound to regulate hair growth. Accordingly, when hair growth peptides as herein defined, are assessed either individually or in combination as a test compound in the C3H Mouse Model, an increase over control of at least 10%, preferably 40%, more preferably 70%, after four weeks treatment will be obtained. […]

Compound: N[C@@H](Cc1c[nH]cn1)C(=O)NCC(=O)NCC(=O)O [His-Gly-Gly, Histidyl-glycyl-glycine] (H-His-Gly-Gly-OH)
- mean percent of shaved area that is covered with hair at Day 25 (topical, 1.0% in Tris buffer/propylene glycol/glycerine (67/30/3, pH 8.0) vehicle, after 4 weeks of treatment, mean of 10 mice): 44.3%
- increase in hair growth (versus vehicle control, Day 25, topical 1.0%): 96%
